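1) Cells in 96-well plates. 2) Compound, 48 h, 5 concentrations. 3) Linear interpolation between surrounding doses. 4) Unreached endpoint = highest concentration. GI50 = concentration required for 50% inhibition of growth. TGI marks complete inhibition of growth.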
Legend:
Experiment in all cases: NCI anticancer screen, dose series, 48 h
[1] = tested on: SNB-19 CNS
[2] = tested on: TK-10 renal
[3] = tested on: CCRF-CEM leukemia
[4] = tested on: MALME-3M melanoma
[5] = tested on: A498 renal
[6] = tested on: NCI-H23 lung
[7] = tested on: HS 578T breast
[8] = tested on: SW-620 colon
[9] = tested on: UO-31 renal
[10] = tested on: OVCAR-8 ovarian
[11] = tested on: CAKI-1 renal
[12] = tested on: HCT-116 colon
[13] = tested on: NCI-H226 lung
[14] = tested on: SK-MEL-2 melanoma
[15] = tested on: U251 CNS
[16] = tested on: NCI-H460 lung
[17] = tested on: COLO 205 colon
[18] = tested on: DU-145 prostate
[19] = tested on: T-47D breast
[20] = tested on: HCC-2998 colon
[21] = tested on: RXF 393 renal
[22] = tested on: LOX IMVI melanoma
[23] = tested on: SN12C renal
[24] = tested on: SR leukemia
[25] = tested on: HOP-62 NSCLC
[26] = tested on: NCI-H522 lung
[27] = tested on: RPMI-8226 leukemia
[28] = tested on: UACC-62 melanoma
[29] = tested on: NCI/ADR-RES ovarian
[30] = tested on: SF-295 CNS
[31] = tested on: BT-549 breast
[32] = tested on: HL-60(TB) leukemia
[33] = tested on: MCF7 breast
[34] = tested on: HOP-92 NSCLC
[35] = tested on: IGROV1 ovarian
[36] = tested on: SK-MEL-28 melanoma
[37] = tested on: 786-0 renal
[38] = tested on: MDA-MB-435
[39] = tested on: HT29 colon
[40] = tested on: MOLT-4 leukemia
[41] = tested on: EKVX NSCLC
[42] = tested on: K-562 leukemia
[43] = tested on: SF-268 CNS
[44] = tested on: SF-539 CNS
[45] = tested on: SNB-75 CNS
[46] = tested on: OVCAR-5 ovarian
[47] = tested on: MDA-MB-231 breast
[48] = tested on: ACHN renal
[49] = tested on: SK-OV-3 ovarian
[50] = tested on: A549 NSCLC
[51] = tested on: OVCAR-4 ovarian
[52] = tested on: SK-MEL-5 melanoma
[53] = tested on: KM12 colon
[54] = tested on: MDA-MB-468 breast
[55] = tested on: OVCAR-3 ovarian
[56] = tested on: HCT-15 colon
[57] = tested on: UACC-257 melanoma
[58] = tested on: M14 melanoma
[59] = tested on: PC-3 prostate

For CCN1CCN(Cc2ccc(C(=O)Nc3cccc(-c4cn(-c5ccc6oc(=O)ccc6c5)nn4)c3)cc2C(F)(F)F)CC1, the GI50 [1] was 17.3 µM, the TGI [1] was 31.1 µM and the GI50 [2] was 19.9 µM. It also gave a TGI [2] of 34.1 µM, a GI50 [3] of 2.23 µM and a TGI [3] of 8.3 µM. It also gave a GI50 [4] of 1.6 µM, a TGI [4] of 3 µM and a GI50 [5] of 29.1 µM. It also gave a TGI [5] of over 100 µM, a GI50 [6] of 1.79 µM and a TGI [6] of 3.56 µM. The GI50 [7] was 18.2 µM, the TGI [7] was 67 µM and the GI50 [8] was 1.71 µM. For the same compound, the TGI [8] was 3.41 µM, the GI50 [9] was 10.6 µM and the TGI [9] was 22.4 µM. It also gave a GI50 [10] of 7.71 µM, a TGI [10] of 20.3 µM and a GI50 [11] of 16.5 µM. The TGI [11] was 39.7 µM, the GI50 [12] was 1.82 µM and the TGI [12] was 3.68 µM. It also gave a GI50 [13] of 13.6 µM, a TGI [13] of 27 µM and a GI50 [14] of 58.3 µM. The TGI [14] was over 100 µM, the GI50 [15] was 1.91 µM and the TGI [15] was 4.03 µM. It also gave a GI50 [16] of 3.61 µM, a TGI [16] of 12.6 µM and a GI50 [17] of over 100 µM. For the same compound, the TGI [17] was over 100 µM, the GI50 [18] was 15.8 µM and the TGI [18] was 29.2 µM. It also gave a GI50 [19] of over 100 µM, a TGI [19] of over 100 µM and a GI50 [20] of 2.52 µM. For the same compound, the TGI [20] was 5.47 µM, the GI50 [21] was 1.77 µM and the TGI [21] was 3.47 µM. For the same compound, the GI50 [22] was 1.69 µM, the TGI [22] was 3.06 µM and the GI50 [23] was 14.3 µM. It also gave a TGI [23] of 27.4 µM, a GI50 [24] of 6.47 µM and a TGI [24] of 52.6 µM. The GI50 [25] was 16.4 µM, the TGI [25] was 31.4 µM and the GI50 [26] was 17.2 µM. The TGI [26] was 30.9 µM, the GI50 [27] was 2.62 µM and the TGI [27] was 12.2 µM. The GI50 [28] was 12.3 µM, the TGI [28] was 24.7 µM and the GI50 [29] was 1.82 µM. The TGI [29] was 3.54 µM, the GI50 [30] was 14.8 µM and the TGI [30] was 28 µM. It also gave a GI50 [31] of over 100 µM, a TGI [31] of over 100 µM and a GI50 [32] of 30.1 µM. The TGI [32] was over 100 µM, the GI50 [33] was 1.68 µM and the TGI [33] was 3.2 µM. It also gave a GI50 [34] of 11.1 µM, a TGI [34] of 39.8 µM and a GI50 [35] of 10.5 µM. It also gave a TGI [35] of 22.3 µM, a GI50 [36] of 1.81 µM and a TGI [36] of 3.29 µM. For the same compound, the GI50 [37] was 2.05 µM, the TGI [37] was 4.05 µM and the GI50 [38] was 1.76 µM. The TGI [38] was 3.6 µM, the GI50 [39] was 1.77 µM and the TGI [39] was 3.72 µM. It also gave a GI50 [40] of 2.88 µM, a TGI [40] of 12.9 µM and a GI50 [41] of 3.81 µM. The TGI [41] was 14.6 µM, the GI50 [42] was 2.34 µM and the TGI [42] was 7.26 µM. It also gave a GI50 [43] of 18.1 µM, a TGI [43] of 45.6 µM and a GI50 [44] of 12.2 µM. It also gave a TGI [44] of 24.6 µM, a GI50 [45] of 12.2 µM and a TGI [45] of 24.6 µM. It also gave a GI50 [46] of 16.2 µM, a TGI [46] of 29.7 µM and a GI50 [47] of 1.78 µM. For the same compound, the TGI [47] was 3.2 µM, the GI50 [48] was 10.9 µM and the TGI [48] was 22.9 µM. The GI50 [49] was 21.7 µM, the TGI [49] was 79.4 µM and the GI50 [50] was 1.79 µM. The TGI [50] was 3.64 µM, the GI50 [51] was 13.9 µM and the TGI [51] was 27.6 µM. For the same compound, the GI50 [52] was 5.5 µM, the TGI [52] was 18 µM and the GI50 [53] was 5.37 µM. The TGI [53] was 17.6 µM, the GI50 [54] was 12.3 µM and the TGI [54] was 27.4 µM. For the same compound, the GI50 [55] was 16.5 µM, the TGI [55] was 30 µM and the GI50 [56] was 1.78 µM. It also gave a TGI [56] of 3.45 µM, a GI50 [57] of 19.2 µM and a TGI [57] of 43.3 µM. For the same compound, the GI50 [58] was 2.46 µM and the TGI [58] was 6.86 µM.

CCOc1ccccc1[C@H]1C(C(=O)c2ccc(Cl)cc2)C2(N[C@@H]1c1ccccc1)C(=O)Nc1ccc(Cl)cc12 (some centres undefined) was tested, and the GI50 [1] was over 18.8 µM, the TGI [1] was over 18.8 µM and the GI50 [2] was over 18.8 µM. For the same compound, the TGI [2] was over 18.8 µM, the GI50 [3] was 11.4 µM and the TGI [3] was over 18.8 µM. It also gave a GI50 [4] of over 18.8 µM, a TGI [4] of over 18.8 µM and a GI50 [5] of over 18.8 µM. For the same compound, the TGI [5] was over 18.8 µM, the GI50 [6] was 17.3 µM and the TGI [6] was over 18.8 µM. For the same compound, the GI50 [7] was over 18.8 µM, the TGI [7] was over 18.8 µM and the GI50 [8] was 13.4 µM. It also gave a TGI [8] of over 18.8 µM, a GI50 [9] of 5.3 µM and a TGI [9] of over 18.8 µM. The GI50 [10] was 18.3 µM, the TGI [10] was over 18.8 µM and the GI50 [11] was 4.11 µM. For the same compound, the TGI [11] was over 18.8 µM, the GI50 [12] was 7.48 µM and the TGI [12] was over 18.8 µM. The GI50 [13] was over 18.8 µM, the TGI [13] was over 18.8 µM and the GI50 [14] was over 18.8 µM. It also gave a TGI [14] of over 18.8 µM, a GI50 [15] of over 18.8 µM and a TGI [15] of over 18.8 µM. It also gave a GI50 [16] of 7.56 µM, a TGI [16] of over 18.8 µM and a GI50 [17] of over 18.8 µM. For the same compound, the TGI [17] was over 18.8 µM, the GI50 [18] was over 18.8 µM and the TGI [18] was over 18.8 µM. The GI50 [19] was 7.73 µM, the TGI [19] was over 18.8 µM and the GI50 [20] was 6.18 µM. For the same compound, the TGI [20] was over 18.8 µM, the GI50 [21] was 16.2 µM and the TGI [21] was over 18.8 µM. It also gave a GI50 [22] of 9.63 µM, a TGI [22] of over 18.8 µM and a GI50 [23] of 13.8 µM. For the same compound, the TGI [23] was over 18.8 µM, the GI50 [24] was 5.28 µM and the TGI [24] was over 18.8 µM. The GI50 [25] was over 18.8 µM, the TGI [25] was over 18.8 µM and the GI50 [26] was 8.03 µM. The TGI [26] was over 18.8 µM, the GI50 [27] was 10.6 µM and the TGI [27] was over 18.8 µM. It also gave a GI50 [28] of 3.93 µM, a TGI [28] of over 18.8 µM and a GI50 [29] of over 18.8 µM. The TGI [29] was over 18.8 µM, the GI50 [59] was 5.51 µM and the TGI [59] was over 18.8 µM. For the same compound, the GI50 [30] was 7.53 µM, the TGI [30] was over 18.8 µM and the GI50 [31] was over 18.8 µM. The TGI [31] was over 18.8 µM, the GI50 [32] was 12.8 µM and the TGI [32] was over 18.8 µM. For the same compound, the GI50 [33] was 6.01 µM, the TGI [33] was over 18.8 µM and the GI50 [34] was 13 µM. The TGI [34] was over 18.8 µM, the GI50 [35] was 7.98 µM and the TGI [35] was over 18.8 µM. It also gave a GI50 [36] of over 18.8 µM, a TGI [36] of over 18.8 µM and a GI50 [37] of over 18.8 µM. It also gave a TGI [37] of over 18.8 µM, a GI50 [38] of 13.9 µM and a TGI [38] of over 18.8 µM. The GI50 [39] was 14.4 µM, the TGI [39] was over 18.8 µM and the GI50 [40] was 5.36 µM. For the same compound, the TGI [40] was over 18.8 µM, the GI50 [41] was 18.6 µM and the TGI [41] was over 18.8 µM. It also gave a GI50 [42] of 6.2 µM, a TGI [42] of over 18.8 µM and a GI50 [43] of 10.5 µM. For the same compound, the TGI [43] was over 18.8 µM, the GI50 [44] was over 18.8 µM and the TGI [44] was over 18.8 µM. For the same compound, the GI50 [45] was 2.84 µM, the TGI [45] was over 18.8 µM and the GI50 [46] was over 18.8 µM. For the same compound, the TGI [46] was over 18.8 µM, the GI50 [47] was 15 µM and the TGI [47] was over 18.8 µM. It also gave a GI50 [48] of 8.05 µM, a TGI [48] of over 18.8 µM and a GI50 [49] of over 18.8 µM. It also gave a TGI [49] of over 18.8 µM, a GI50 [50] of 8.86 µM and a TGI [50] of over 18.8 µM. The GI50 [51] was over 18.8 µM, the TGI [51] was over 18.8 µM and the GI50 [52] was over 18.8 µM. The TGI [52] was over 18.8 µM, the GI50 [53] was 9.75 µM and the TGI [53] was over 18.8 µM. For the same compound, the GI50 [54] was 4.84 µM, the TGI [54] was over 18.8 µM and the GI50 [55] was 7.8 µM. For the same compound, the TGI [55] was over 18.8 µM, the GI50 [56] was 13.8 µM and the TGI [56] was over 18.8 µM. For the same compound, the GI50 [57] was 8.85 µM, the TGI [57] was over 18.8 µM and the GI50 [58] was 12.3 µM. The TGI [58] was over 18.8 µM.

Reference: PubChem BioAssay (NCI)
